Results: PubChem BioAssay AID504897 (Southern Research Specialized Biocontainment Screening …, 2011)
Activity calls are given as the source filed them. How the calls were made is not given here.

Legend:
[1] = M. tuberculosis growth inhibition, dose response, H37Rv, 7H9 media, purified and synthesized compounds, set 6 (AID 504897); settings: Mycobacterium tuberculosis H37Rv growth inhibition, 7H9 medium; at 100 µM (top of the series)
[2] = tested on: Mycobacterium tuberculosis H37Rv growth inhibition, 7H9 medium; test: as above; settings: for IC50: measured here: IC50 of Mtb growth inhibition

Question: For `Cc1nc(SCC(N)=O)[nH]c(=O)c1C`, which inhibition [1] is on record?
Answer: -2.86% (inactive)

Question: For `CC1CCN(C(=O)C2CCN(c3nnc(-n4cccc4)s3)CC2)CC1`, which IC90 [2] is on record?
Answer: 3900 nM

Question: What about the IC50 [2] of the same compound?
Answer: 2750 nM

Question: For `CCCCNC(=O)CSc1nc2ccccc2c(=O)[nH]1`, which IC90 [2] is on record?
Answer: 1210 nM

Question: What about the IC50 [2] of the same compound?
Answer: 55 nM

Question: Which inhibition [1] does the source give for `Cc1c[nH]c(=S)[nH]c1=O` here?
Answer: -0.98% (inactive)

Question: What does the source list for `COc1c(N2CCNC(C)C2)c(F)cc2c(=O)c(C(=O)O)cn(C3CC3)c12` (centres undefined)?
Answer: IC90 [2]: 162 nM; IC50 [2]: 113 nM

Question: With `CCOc1ccc(-c2cc(C)[n+](CCc3ccc(OC)c(OC)c3)c(-c3ccc(OCC)cc3)c2)cc1` as the compound, how does the IC90 [2] read?
Answer: 954 nM

Question: What about the IC50 [2] of the same compound?
Answer: 568 nM

Question: For `COc1ccc(NC(=O)CSc2nc3ccccc3c(=O)[nH]2)cc1`, which inhibition [1] is on record?
Answer: 1.71% (inactive)

Question: For `CCC(Sc1nc2ccccc2c(=O)[nH]1)C(=O)NC1CCCCC1` (centres undefined), which inhibition [1] is on record?
Answer: 1.35% (inactive)

Question: Which IC90 [2] does the source give for `Cc1ccc(NC(=O)COC(=O)CCc2c[nH]c3ccccc23)cc1[N+](=O)[O-]` here?
Answer: 4370 nM

Question: What about the IC50 [2] of the same compound?
Answer: 1340 nM

Question: With `COC(=O)c1ccc(CNc2c(N3CCCC3)c(=O)c2=O)cc1` as the compound, how does the IC50 [2] read?
Answer: > 100000 nM

Question: Which results are given for `c1ccc(/N=C2\N=C(Nc3ccccn3)c3ccccc32)nc1`?
Answer: IC90 [2]: 1760 nM; IC50 [2]: 1180 nM

Question: For `O=C(CSc1nc2ccccc2c(=O)[nH]1)N1CCOCC1`, which inhibition [1] is on record?
Answer: 6.74% (inactive)

Question: With `Cc1nc(SCC(=O)NC2CCCCC2)[nH]c(=O)c1C` as the compound, how does the IC90 [2] read?
Answer: 1320 nM

Question: What about the IC50 [2] of the same compound?
Answer: < 6 nM

Question: For `Cc1ccc(NC(=O)CSc2nc3ccccc3c(=O)[nH]2)cc1Cl`, which inhibition [1] is on record?
Answer: -4.35% (inactive)

Question: For `O=C(CSc1nc2c(c(=O)[nH]1)CCCC2)NC1CCCCC1`, which IC90 [2] is on record?
Answer: 81 nM

Question: And the IC50 [2]?
Answer: < 37 nM

Question: Which results are given for `Cc1ccc(C(=O)N/N=C(/CC(=O)c2cccs2)C(F)(F)F)cc1`?
Answer: IC90 [2]: 3100 nM; IC50 [2]: 1930 nM

Question: What does the source list for `Cc1cccc(/C=C/C(=O)c2ccc([N+](=O)[O-])o2)c1`?
Answer: IC90 [2]: 938 nM; IC50 [2]: 495 nM

Question: Which results are given for `CC(C)CCNC(=O)CSc1nc2c(c(=O)[nH]1)CCC2`?
Answer: IC90 [2]: 947 nM; IC50 [2]: 722 nM

Question: Which results are given for `O=C(CSc1nc2c(c(=O)[nH]1)CCC2)NC1CCCCC1`?
Answer: IC90 [2]: < 69 nM; IC50 [2]: < 34 nM

Question: Which inhibition [1] does the source give for `Cc1cnc(SCC(=O)NC2CCCCC2)[nH]c1=O` here?
Answer: 0.5% (inactive)

Question: Which IC90 [2] does the source give for `NC[C@H]1O[C@H](O[C@H]2[C@H](O)[C@@H](O[C@H]3O[C@H](CO)[C@@H](O)[C@H](N)[C@H]3O)[C@H](N)C[C@@H]2N)[C@H](O)[C@@H](O)[C@@H]1O` here?
Answer: 2120 nM

Question: And the IC50 [2]?
Answer: 1390 nM

Question: With `CC(C)N=c1cc2n(-c3ccc(Cl)cc3)c3ccccc3nc-2cc1Nc1ccc(Cl)cc1` as the compound, how does the IC90 [2] read?
Answer: 396 nM

Question: What about the IC50 [2] of the same compound?
Answer: 67 nM

Question: For `CC(Sc1nc2ccccc2c(=O)[nH]1)C(=O)NC1CCCCC1` (centres undefined), which inhibition [1] is on record?
Answer: -1.17% (inactive)

Question: With `Cc1cccc(-c2oc3ccc(-c4ccc5c(c4)OCO5)cc3c2C#Cc2cncn2C)c1` as the compound, how does the IC90 [2] read?
Answer: 2980 nM

Question: What about the IC50 [2] of the same compound?
Answer: 2410 nM

Question: For `CCOC(=O)CSc1nc(C)c(C)c(=O)[nH]1`, which inhibition [1] is on record?
Answer: 3.07% (inactive)

Question: Which IC90 [2] does the source give for `Nc1c(C(=O)NC2CCCCC2)nsc1C(=O)OCC(=O)NC1CCCCC1` here?
Answer: 7450 nM

Question: And the IC50 [2]?
Answer: 2130 nM

Question: Which IC90 [2] does the source give for `Cc1nc(SCC(=O)NCCC(C)C)[nH]c(=O)c1C` here?
Answer: 8750 nM

Question: What about the IC50 [2] of the same compound?
Answer: 4900 nM

Question: Which inhibition [1] does the source give for `COC(=O)C(Nc1nc(SCC(=O)NC2CCCCC2)nc2ccccc12)c1ccccc1` (centres undefined) here?
Answer: 9.91% (inactive)

Question: Which inhibition [1] does the source give for `Cn1c(SCC(=O)NC2CCCCC2)nc2ccccc2c1=O` here?
Answer: -2.65% (inactive)

Question: For `COc1cccc(NC(=O)CSc2nc3c(c(=O)[nH]2)CCC3)c1`, which inhibition [1] is on record?
Answer: -0.07% (inactive)

Question: Which inhibition [1] does the source give for `COc1cccc(NC(=O)CSc2nc3ccccc3c(=O)[nH]2)c1` here?
Answer: -3.46% (inactive)

Question: With `O=c1[nH]c(=S)[nH]c2ccccc12` as the compound, how does the inhibition [1] read?
Answer: -4.69% (inactive)

Question: For `CCCc1cc(C(N)=S)ccn1`, which IC50 [2] is on record?
Answer: 7240 nM

Question: Which inhibition [1] does the source give for `O=c1[nH]c(SCc2ccccc2Cl)nc2c1CCCC2` here?
Answer: 1.13% (inactive)

Question: Which inhibition [1] does the source give for `NC(=O)CSc1nc2ccccc2c(=O)[nH]1` here?
Answer: 3.52% (inactive)

Question: With `NC(=O)c1cnccn1` as the compound, how does the IC50 [2] read?
Answer: > 100000 nM

Question: With `CN(C)C(=O)CSc1nc2ccccc2c(=O)[nH]1` as the compound, how does the inhibition [1] read?
Answer: 0.96% (inactive)

Question: For `CN(C(=O)CSc1nc2ccccc2c(=O)[nH]1)C1CCCCC1`, which inhibition [1] is on record?
Answer: -1.28% (inactive)

Question: With `CC(C)NC(=O)CSc1nc2ccccc2c(=O)[nH]1` as the compound, how does the IC90 [2] read?
Answer: 14200 nM

Question: What about the IC50 [2] of the same compound?
Answer: 5840 nM

Question: Which inhibition [1] does the source give for `CCSc1nc(C)c(C)c(=O)[nH]1` here?
Answer: 0.94% (inactive)

Question: With `CCSc1nc2ccccc2c(=O)[nH]1` as the compound, how does the inhibition [1] read?
Answer: -6.01% (inactive)

Question: Which results are given for `CC(C)CNC(=O)CSc1nc2ccccc2c(=O)[nH]1`?
Answer: IC90 [2]: 432 nM; IC50 [2]: 173 nM

Question: For `Cc1cc(=O)[nH]c(SCC(=O)NC2CCCCC2)n1`, which inhibition [1] is on record?
Answer: 0.97% (inactive)

Question: Which inhibition [1] does the source give for `Nc1cc(=O)[nH]c(SCC(=O)NC2CCCCC2)n1` here?
Answer: -4.53% (inactive)

Question: With `Cc1cc(=O)[nH]c(=S)[nH]1` as the compound, how does the inhibition [1] read?
Answer: -3.5% (inactive)

Question: For `CN1CCC(NC(=O)CSc2nc3ccccc3c(=O)[nH]2)CC1`, which inhibition [1] is on record?
Answer: -4.24% (inactive)

Question: For `CC[N+](C)(CC)CCCCOc1ccc2c(c1)C(=O)c1cc(OCCCC[N+](C)(CC)CC)ccc1-2`, which IC90 [2] is on record?
Answer: 2650 nM

Question: What about the IC50 [2] of the same compound?
Answer: 1770 nM

Question: Which IC90 [2] does the source give for `CNC(=O)CSc1nc2ccccc2c(=O)[nH]1` here?
Answer: 68100 nM

Question: What about the IC50 [2] of the same compound?
Answer: 43900 nM

Question: Which IC90 [2] does the source give for `NNC(=O)c1ccncc1` here?
Answer: 294 nM

Question: And the IC50 [2]?
Answer: 175 nM

Question: Which inhibition [1] does the source give for `Cc1nc(SCC(=O)N(C)c2ccccc2)[nH]c(=O)c1C` here?
Answer: -3.37% (inactive)

Question: What does the source list for `CCOC1OC(=O)C(Cl)=C1Nc1ccccc1C` (centres undefined)?
Answer: IC90 [2]: 5920 nM; IC50 [2]: 3220 nM

Question: What does the source list for `COC(=O)C(C)Oc1ccc(Cc2ncc(C(F)(F)F)cc2Cl)cc1` (centres undefined)?
Answer: IC90 [2]: 6750 nM; IC50 [2]: 3500 nM

Question: What does the source list for `Cc1cc(C)n2nc(N)c(N=Nc3ccccc3)c2n1`?
Answer: IC90 [2]: 6010 nM; IC50 [2]: 4940 nM

Question: Which IC50 [2] does the source give for `O=C(CSc1ccccn1)NC1CCCCC1` here?
Answer: > 100000 nM

Question: For `O=C(CSc1ncccn1)NC1CCCCC1`, which inhibition [1] is on record?
Answer: -0.52% (inactive)

Question: Which inhibition [1] does the source give for `CCC(Sc1nc2c(c(=O)[nH]1)CCC2)C(=O)Nc1cccc(OC)c1` (centres undefined) here?
Answer: 1.68% (inactive)

Question: For `Cc1[nH]c(=S)[nH]c(=O)c1C`, which inhibition [1] is on record?
Answer: -0.2% (inactive)

Question: For `O=C(CSc1nccc(=O)[nH]1)NC1CCCCC1`, which inhibition [1] is on record?
Answer: 0.9% (inactive)

Question: For `Cc1nc(SCC(=O)NC2CCCC2)[nH]c(=O)c1C`, which IC90 [2] is on record?
Answer: 8890 nM

Question: What about the IC50 [2] of the same compound?
Answer: 5120 nM

Question: For `CCC(Sc1nc2ccccc2c(=O)[nH]1)C(=O)Nc1cccc(OC)c1` (centres undefined), which inhibition [1] is on record?
Answer: 4.58% (inactive)

Question: For `Cc1nc(SCc2ccccc2Cl)[nH]c(=O)c1C`, which inhibition [1] is on record?
Answer: -10.5% (inactive)

Question: What does the source list for `CC(C)CCNC(=O)CSc1nc2ccccc2c(=O)[nH]1`?
Answer: IC90 [2]: < 136 nM; IC50 [2]: < 81 nM

Question: What does the source list for `O=C(CSc1nc2ccccc2c(=O)[nH]1)NC1CCCC1`?
Answer: IC90 [2]: 535 nM; IC50 [2]: 89 nM

Question: Which IC90 [2] does the source give for `CN[C@@H]1[C@H](O[C@H]2[C@H](O[C@H]3[C@H](O)[C@@H](O)[C@H](N=C(N)N)[C@@H](O)[C@@H]3N=C(N)N)O[C@@H](C)[C@]2(O)C=O)O[C@@H](CO)[C@H](O)[C@H]1O` here?
Answer: 176 nM

Question: And the IC50 [2]?
Answer: 101 nM

Question: What does the source list for `O=C(CSc1nc2ccccc2c(=O)[nH]1)NCc1ccc(Cl)cc1`?
Answer: IC90 [2]: 973 nM; IC50 [2]: 554 nM

Question: With `Cc1[nH]c2ccccc2c1C(=O)COC(=O)c1ccc([N+](=O)[O-])s1` as the compound, how does the IC50 [2] read?
Answer: > 67400 nM

Question: Which inhibition [1] does the source give for `CC1CCN(C(=O)CSc2nc3ccccc3c(=O)[nH]2)CC1` here?
Answer: 3.89% (inactive)

Question: With `Cc1cc(Br)ccc1NC(=O)c1cnc(N2CCN(c3ccccn3)CC2)c2ccccc12` as the compound, how does the IC90 [2] read?
Answer: 2790 nM

Question: What about the IC50 [2] of the same compound?
Answer: 887 nM
